Experimental data as given in the Kinase Knowledgebase extract (Sharma et al. 2016).

Biological target: CDK2 (human) (UniProt P24941)
Test: Enzyme Assay
Conditions: for inhibition: concentration not given here

| Compound | inhibition [%] | Ki [nM] |
| --- | --- | --- |
| Nc1nc(NC2CCN(C(=O)C(=O)c3c[nH]c4ccccc34)CC2)sc1C(=O)c1c(F)cccc1F | -31 |  |
| CN1CC(C(=O)N2CCC(Nc3nc(N)c(C(=O)c4c(F)cccc4F)s3)CC2)CC1=O (centres undefined) | 41 |  |
| Nc1nc(NC2CCN(C(=O)OCC3c4ccccc4-c4ccccc43)CC2)sc1C(=O)c1c(F)cccc1F | -12 |  |
| Nc1nc(NC2CCN(C(=O)c3ccc(F)cc3F)CC2)sc1C(=O)c1c(F)cccc1F | 67 |  |
| N#C/C(=C\c1cccc(O)c1)C(=O)N1CCC(Nc2nc(N)c(C(=O)c3c(F)cccc3F)s2)CC1 | 84 |  |
| Nc1nc(NC2CCN(C(=O)C(c3ccccc3)c3ccccc3)CC2)sc1C(=O)c1c(F)cccc1F | -34 |  |
| Nc1nc(NC2CCN(C(=O)Cn3cnnn3)CC2)sc1C(=O)c1c(F)cccc1F | 87 |  |
| Cc1c(F)cccc1C(=O)N1CCC(Nc2nc(N)c(C(=O)c3c(F)cccc3F)s2)CC1 | 36 |  |
| Nc1nc(NC2CCN(C(=O)C(O)c3ccccc3Cl)CC2)sc1C(=O)c1c(F)cccc1F (centres undefined) | 51 |  |
| CCCCC(C)C(=O)N1CCC(Nc2nc(N)c(C(=O)c3c(F)cccc3F)s2)CC1 (centres undefined) | -2 |  |
| COc1cc(C(O)C(=O)N2CCC(Nc3nc(N)c(C(=O)c4c(F)cccc4F)s3)CC2)ccc1O (centres undefined) | 26 |  |
| CC(C)=CC(=O)N1CCC(Nc2nc(N)c(C(=O)c3c(F)cccc3F)s2)CC1 | -19 |  |
| CC(C)(C)C1CCC(C(=O)N2CCC(Nc3nc(N)c(C(=O)c4c(F)cccc4F)s3)CC2)CC1 (centres undefined) | 34 |  |
| COc1cccc2cc(C(=O)N3CCC(Nc4nc(N)c(C(=O)c5c(F)cccc5F)s4)CC3)oc12 | 77 |  |
| NC(=S)Nc1cccc(C(=O)N2CCC(Nc3nc(N)c(C(=O)c4c(F)cccc4F)s3)CC2)c1 | 75 |  |
| Nc1nc(NC2CCN(C(=O)CSc3ccncc3)CC2)sc1C(=O)c1c(F)cccc1F | 23 |  |
| Nc1nc(NC2CCN(C(=O)/C=C/c3ccccc3O)CC2)sc1C(=O)c1c(F)cccc1F | 74 |  |
| Nc1nc(NC2CCN(C(=O)c3ccc4ccccc4n3)CC2)sc1C(=O)c1c(F)cccc1F | 9 |  |
| Nc1nc(NC2CCN(C(=O)[C@@H](O)Cc3ccccc3)CC2)sc1C(=O)c1c(F)cccc1F | 61 |  |
| Nc1nc(NC2CCN(C(=O)c3csc([N+](=O)[O-])c3)CC2)sc1C(=O)c1c(F)cccc1F | 48 |  |
| CCC/C=C/CC(=O)N1CCC(Nc2nc(N)c(C(=O)c3c(F)cccc3F)s2)CC1 | 49 |  |
| COc1ccc(C(=O)N2CCC(Nc3nc(N)c(C(=O)c4c(F)cccc4F)s3)CC2)c(Cl)c1 | 52 |  |
| CC1(CCC(=O)N2CCC(Nc3nc(N)c(C(=O)c4c(F)cccc4F)s3)CC2)SCCS1 | 78 |  |

| Compound | inhibition [%] | Ki [nM] |
| --- | --- | --- |
| COc1ccc(Cl)cc1C(=O)N1CCC(Nc2nc(N)c(C(=O)c3c(F)cccc3F)s2)CC1 | 18 |  |
| CCCCCCCC(=O)N1CCC(Nc2nc(N)c(C(=O)c3c(F)cccc3F)s2)CC1 | 53 |  |
| CCOCC(=O)N1CCC(Nc2nc(N)c(C(=O)c3c(F)cccc3F)s2)CC1 | 62 |  |
| Nc1nc(NC2CCN(C(=O)CCCS)CC2)sc1C(=O)c1c(F)cccc1F | 23 |  |
| Nc1nc(NC2CCN(C(=O)COc3ccccc3O)CC2)sc1C(=O)c1c(F)cccc1F | 63 |  |
| Nc1nc(NC2CCN(C(=O)c3cnc4ccccc4c3)CC2)sc1C(=O)c1c(F)cccc1F | 27 |  |
| Nc1nc(NC2CCN(C(=O)/C=C/c3cc(O)ccc3O)CC2)sc1C(=O)c1c(F)cccc1F | 80 |  |
| C[C@H](O)C(=O)N1CCC(Nc2nc(N)c(C(=O)c3c(F)cccc3F)s2)CC1 | 67 |  |
| Cc1cc(C)c(/C=C/C(=O)N2CCC(Nc3nc(N)c(C(=O)c4c(F)cccc4F)s3)CC2)cc1C | 76 |  |
| C=CCCC(=O)N1CCC(Nc2nc(N)c(C(=O)c3c(F)cccc3F)s2)CC1 | 68 |  |
| Cc1ccc(C)c(/C=C/C(=O)N2CCC(Nc3nc(N)c(C(=O)c4c(F)cccc4F)s3)CC2)c1 | 34 |  |
| CC(=O)c1ccc(O)c(C(=O)N2CCC(Nc3nc(N)c(C(=O)c4c(F)cccc4F)s3)CC2)c1 | 9 |  |
| Nc1nc(NC2CCN(C(=O)Cc3ccc(Cl)cc3)CC2)sc1C(=O)c1c(F)cccc1F | 58 |  |
| Nc1nc(NC2CCN(C(=O)CC3CCCC3)CC2)sc1C(=O)c1c(F)cccc1F | -20 |  |
| CCSCC(=O)N1CCC(Nc2nc(N)c(C(=O)c3c(F)cccc3F)s2)CC1 | 63 |  |
| Nc1nc(NC2CCN(C(=O)c3ccc4[nH]nnc4c3)CC2)sc1C(=O)c1c(F)cccc1F | 49 |  |
| Nc1nc(NC2CN(C(=O)c3ccc([N+](=O)[O-])cc3)C2)sc1C(=O)c1c(F)cccc1F |  | 360 |
| Nc1nc(NC2CCN(C(=O)/C=C/c3ccc(F)c(F)c3)CC2)sc1C(=O)c1c(F)cccc1F | 61 |  |
| NC(=S)Nc1ccc(C(=O)N2CCC(Nc3nc(N)c(C(=O)c4c(F)cccc4F)s3)CC2)cc1 | 73 |  |
| CC(=O)N1CCC(C(=O)N2CCC(Nc3nc(N)c(C(=O)c4c(F)cccc4F)s3)CC2)CC1 | 36 |  |
| COc1c(C)cccc1C(=O)N1CCC(Nc2nc(N)c(C(=O)c3c(F)cccc3F)s2)CC1 | 10 |  |
| CCN(CC)C(=O)N1CCC(Nc2nc(N)c(C(=O)c3c(F)cccc3F)s2)CC1 | -43 |  |
| CC(C)[C@@H]1CC[C@@H](C)C[C@H]1OC(=O)N1CCC(Nc2nc(N)c(C(=O)c3c(F)cccc3F)s2)CC1 | -45 |  |

| Compound | inhibition [%] | Ki [nM] |
| --- | --- | --- |
| C=CCC(C)C(=O)N1CCC(Nc2nc(N)c(C(=O)c3c(F)cccc3F)s2)CC1 (centres undefined) | 21 |  |
| Nc1nc(NC2CCN(C(=O)Cc3c[nH]c4ccc(F)cc34)CC2)sc1C(=O)c1c(F)cccc1F | 66 |  |
| CC(C)(O)CC(=O)N1CCC(Nc2nc(N)c(C(=O)c3c(F)cccc3F)s2)CC1 | 51 |  |
| CC(CO)(CO)C(=O)N1CCC(Nc2nc(N)c(C(=O)c3c(F)cccc3F)s2)CC1 | 17 |  |
| Cc1cc(C(=O)N2CCC(Nc3nc(N)c(C(=O)c4c(F)cccc4F)s3)CC2)ccc1Cl | 51 |  |
| Nc1nc(NC2CCN(C(=O)c3cnccc3C(F)(F)F)CC2)sc1C(=O)c1c(F)cccc1F | 18 |  |
| COc1ccc(C(=O)N2CCC(Nc3nc(N)c(C(=O)c4c(F)cccc4F)s3)CC2)cc1Cl | 47 |  |
| CC(O)(C(=O)N1CCC(Nc2nc(N)c(C(=O)c3c(F)cccc3F)s2)CC1)c1ccccc1 (centres undefined) | 49 |  |
| Nc1nc(NC2CCN(C(=O)c3cnc4ccccc4n3)CC2)sc1C(=O)c1c(F)cccc1F | 61 |  |
| Nc1nc(NC2CCN(C(=O)[C@@H]3CCC(=O)O3)CC2)sc1C(=O)c1c(F)cccc1F | 95 |  |
| Cc1ccc(CCCC(=O)N2CCC(Nc3nc(N)c(C(=O)c4c(F)cccc4F)s3)CC2)c(C)c1 | 35 |  |
| CC(C)C(C(=O)N1CCC(Nc2nc(N)c(C(=O)c3c(F)cccc3F)s2)CC1)c1ccccc1 (centres undefined) | 29 |  |
| Cn1ncc(C(=O)N2CCC(Nc3nc(N)c(C(=O)c4c(F)cccc4F)s3)CC2)c1[N+](=O)[O-] | 40 |  |
| Nc1nc(NC2CCN(C(=O)c3cccc(F)c3F)CC2)sc1C(=O)c1c(F)cccc1F | 11 |  |
| CN(CC(=O)N1CCC(Nc2nc(N)c(C(=O)c3c(F)cccc3F)s2)CC1)C(=O)OC(C)(C)C | 12 |  |
| CC(C)=CC1C(C(=O)N2CCC(Nc3nc(N)c(C(=O)c4c(F)cccc4F)s3)CC2)C1(C)C (centres undefined) | 10 |  |
| Nc1cc(C(=O)N2CCC(Nc3nc(N)c(C(=O)c4c(F)cccc4F)s3)CC2)ccc1Cl | 50 |  |
| COC(=O)c1cccc(C(=O)N2CCC(Nc3nc(N)c(C(=O)c4c(F)cccc4F)s3)CC2)c1 | 65 |  |
| COc1ccc(CC(=O)N2CCC(Nc3nc(N)c(C(=O)c4c(F)cccc4F)s3)CC2)cc1C | 62 |  |
| Nc1nc(NC2CCN(C(=O)c3ccc4c(c3)C(=O)OC4=O)CC2)sc1C(=O)c1c(F)cccc1F | 53 |  |
| Nc1nc(NC2CCN(S(=O)(=O)c3cccc4cccnc34)CC2)sc1C(=O)c1c(F)cccc1F | -32 |  |
| Cc1ccnc(SCC(=O)N2CCC(Nc3nc(N)c(C(=O)c4c(F)cccc4F)s3)CC2)n1 | 86 |  |
| CCCCCC(=O)N1CCC(Nc2nc(N)c(C(=O)c3c(F)cccc3F)s2)CC1 | 36 |  |

| Compound | inhibition [%] | Ki [nM] |
| --- | --- | --- |
| CCOCCC(=O)N1CCC(Nc2nc(N)c(C(=O)c3c(F)cccc3F)s2)CC1 | 18 |  |
| C=CC(C)C(=O)N1CCC(Nc2nc(N)c(C(=O)c3c(F)cccc3F)s2)CC1 (centres undefined) | 37 |  |
| COc1ccc(C(=O)N2CCC(Nc3nc(N)c(C(=O)c4c(F)cccc4F)s3)CC2)cc1F | 72 |  |
| Nc1nc(NC2CCN(C(=O)C3CCCO3)CC2)sc1C(=O)c1c(F)cccc1F (centres undefined) | 27 |  |
| Nc1nc(NC2CCN(C(=O)c3ccco3)CC2)sc1C(=O)c1c(F)cccc1F | 49 |  |
| COC(=O)CCC(=O)N1CCC(Nc2nc(N)c(C(=O)c3c(F)cccc3F)s2)CC1 | 12 |  |
| Nc1nc(NC2CCN(C(=O)c3cccnc3)CC2)sc1C(=O)c1c(F)cccc1F | 28 |  |
| CCN(CC)CCC(=O)N1CCC(Nc2nc(N)c(C(=O)c3c(F)cccc3F)s2)CC1 | 57 |  |
| Nc1nc(NC2CCN(C(=O)c3ccc(C(F)(F)F)cc3C(F)(F)F)CC2)sc1C(=O)c1c(F)cccc1F | 0 |  |
| CC(C)c1ccc(CC(=O)N2CCC(Nc3nc(N)c(C(=O)c4c(F)cccc4F)s3)CC2)cc1 | 85 |  |
| CC(C)(C)c1ccc(CC(=O)N2CCC(Nc3nc(N)c(C(=O)c4c(F)cccc4F)s3)CC2)cc1 | 55 |  |
| CN(C)c1ccccc1C(=O)N1CCC(Nc2nc(N)c(C(=O)c3c(F)cccc3F)s2)CC1 | 6 |  |
| CC1(C)C2CC[C@]1(CS(=O)(=O)N1CCC(Nc3nc(N)c(C(=O)c4c(F)cccc4F)s3)CC1)C(=O)C2 | -1 |  |
| Cc1c(S(=O)(=O)c2ccc(Cl)cc2)csc1C(=O)N1CCC(Nc2nc(N)c(C(=O)c3c(F)cccc3F)s2)CC1 | -7 |  |
| CC(C)(C(=O)N1CCC(Nc2nc(N)c(C(=O)c3c(F)cccc3F)s2)CC1)c1ccccc1 | 33 |  |
| COC1CCC(C(=O)N2CCC(Nc3nc(N)c(C(=O)c4c(F)cccc4F)s3)CC2)CC1 (centres undefined) | 54 |  |
| CC(=O)CCC(=O)N1CCC(Nc2nc(N)c(C(=O)c3c(F)cccc3F)s2)CC1 | 15 |  |
| Nc1nc(NC2CCN(C(=O)[C@@H](O)c3ccccc3)CC2)sc1C(=O)c1c(F)cccc1F | 61 |  |
| CO[C@](C(=O)N1CCC(Nc2nc(N)c(C(=O)c3c(F)cccc3F)s2)CC1)(c1ccccc1)C(F)(F)F | -29 |  |
| Nc1nc(NC2CCN(C(=O)Cc3cc(F)c(F)c(F)c3)CC2)sc1C(=O)c1c(F)cccc1F | 57 |  |
